Experimental data as given in patent publication US20250283871A1, “COMPOSITIONS AND METHODS FOR MODULATING THE INTERACTION BETWEEN SS18-SSX FUSION ONCOPROTEIN AND NUCLEOSOMES” (Dana-Farber Cancer Institute, Inc., priority 2020, published 2025).

Experiments:
nucleosomes = test: Restriction enzyme accessibility assay (REAA) nucleosome remodeling assay; assay type: biochemical; details: 37 degrees C, 0-40 min
Procedure: SMARCA4 (BRG1) levels of the ammonium sulfate nuclear extracts were normalized via BCA protein quantification and Silver Stain analyses for HA-SS18 and HA-SS18-SSX conditions. Protein was diluted for final reaction concentration of 150 μg/mL in REAA buffer (20 mM HEPES, pH 8.0, 50 mM KCl, 5 mM MgCl2) containing 0.1 mg/mL BSA, 1 mM DTT, 20 nM nucleosomes (EpiDyne Nucleosome Remodeling Assay Substrate ST601-GATC1, EpiCypher). The REAA mixture was incubated at 37° C. for 10 min, and reaction was initiated using 1-2 mM ATP (Ultrapure ATP, Promega) and 0.005 U/mL DpnJJ Restriction Enzyme (New England Biolabs). The REAA reaction mixture was quenched with 20-24 mM EDTA and placed on ice. Proteinase K (Ambion) was added at 100 mg/mL for 30-60 min, followed by either AMPure bead DNA purification and D1000 HS DNA ScreenTape Analysis (Agilent) or mixing with GelPilot® Loading Dye (QIAGEN) and loading onto 8% TBE gel (Novex 8% TBE Gels, Thermo Fisher). TBE gels were stained with either SYBR®-Safe (Invitrogen) or Syto®-60 Red Fluorescent Nucleic Acid Stain (Invitrogen), followed by imaging with UV light on an Alpha Innotech AlphaImager™ 2200 and/or with 652 nm light excitation on a Li-Cor Odyssey® CLx imaging system (LI-COR).

[1] = test system: BAF complex subunits and histone proteins; test: Mass spectrometry proteomics of purified HA-SS18 WT and HA-SS18-SSX1 complexes (Tables 5A-5E); parameters: species or system human; details: MS of HA purifications
Procedure: Confluent plates were scraped to remove cells and cells were washed with PBS. Cell suspension was spun down by centrifugation at 3000 rpm for 5 minutes at 4° C. and pellets were resuspended in hypotonic buffer (10 mM Tris HCl pH 7.5, 10 mM KCl, 1.5 mM MgCL2, 1 mM DTT, 1 mM PMSF) and incubated on ice for 5 minutes. Following incubation, cell suspension was spun down by centrifugation at 5000 rpm for 5 minutes at 4° C., and pellets were resuspended in 5× volume of fresh hypotonic buffer (with protease inhibitor cocktail, Roche C756U27) and then cells were homogenized using a Dounce homogenizer (glass). Cell suspension was layered onto hypotonic buffer sucrose cushion made with 30% sucrose w/v, spun down by centrifugation at 5000 rpm for 1 hour at 4° C. followed by removal of the cytosol-containing layer. The nuclei containing pellets were resuspended in high salt buffer (50 mM Tris HCl pH 7.5, 300 mM KCl, 1 mM MgCL2, 1 mM EDTA, 1 mM, 1% NP40, 1 mM DTT, 1 mM PMSF and protease inhibitor cocktail) and then the homogenate rotated for 1 hour at 4° C. Homogenates were then spun down by centrifugation at 20,000 rpm for 1 hour at 4° C. in a SW32Ti rotor (Beckman Coulter). The soluble proteins, consisting of the nuclear extract (NE) fraction, was separated from the insoluble chromatin pellet, consisting of the chromatin (CHR) fraction. […]

[2] = test system: H2A K119Ub-modified nucleosomes; test: Pull down of endogenous HA-SS18- or HA-SS18-SSX-bound BAF complexes with WT or H2A K119Ub-modified nucleosomes; assay type: binding; details: endogenously purified complexes
Procedure: Difference is the score calculated between SYO1 (SS18-SSX+) cells and SW982 cells (negative for fusion, histologic mimic). mSWI/SNF, PRC1, PRC2 members are shown. […] H3 immunoblot is used for assessment of nucleosome binding to GST-SSX. […] SMARCA4 and H3 immunoblots are shown. FIG. 11G has two panels. […] Peptides were incubated −/+presence of USP2 treatment. Error bars=st.dev. […] H3 immunoblot is used for assessment of nucleosome binding to GST-SSX. […] Data for GST-SSX with WT nucleosomes and H2A K119Ub nucleosomes are shared between FIG. 11E.
SS cell lines containing the SS18-SSX fusion oncoprotein are highlighted in red. […] Difference is the score calculated between SYO1, Yamato-SS, SCS241 (SS18-SSX+) cells and SW982 cells (negative for fusion, histologic mimic). Blue indicates enriched for dependency. mSWI/SNF, PRC1, PRC2 members are shown. […] Synovial sarcoma cell lines are indicated in pink; all other cell lines are represented in gray. […] (Project DRIVE; available on the World Wide Web at oncologynibr.shinyapps.io/drive/). SS cell lines containing the SS18-SSX fusion oncoprotein are highlighted in red. […] H3 immunoblot is used for assessment of nucleosome binding to GST-SSX. […] SMARCA4 and H3 immunoblots are shown. […] Identified proteins labeled (Left). WB of the samples on the right indicating presence of histone H3 (Right).

[3] = test system: recombinant mononucleosome; test: ATPase assay (ADP-Glo); assay type: biochemical; details: 0-40 min
Procedure: ATPase consumption assays were performed using the ADP-Glo Kinase Assay kit (Promega). The same conditions as the REAA nucleosome remodeling assay described above were used. Following incubation with desired substrates for 40 min at 37° C., 1× volume of ADP-Glo Reagent was used to quench the reaction and incubated at RT for 40 min. 2× volume of the Kinase Detection Reagent was then added and incubated at RT for 1 h. Luminescence readout was recorded. Substrates used for this assay were purified recombinant mononucleosome (EpiDyne Nucleosome Remodeling Assay Substrate ST601-GATC1, EpiCypher, Cat #16-4101). Nuclear extract material was used at 150ug for each ARID1A-IP using ARID1A antibody (Cell Signaling, Cat #12354S).

histone proteins = test: Purification of mSWI/SNF (BAF) complexes from NE and CHR fractions, colloidal blue staining; parameters: species or system human
Procedure: Stable HEK293T cell lines expressing by lentiviral infection HA-SS18 WT or HA-SS18-SSX1 were grown in 150 mm dishes. Complexes were purified using methods previously described with a few modifications (Mashtalir et al. (2014) Mol. Cell 54:392-406). Confluent plates were scraped to remove cells and cells were washed with PBS. Cell suspension was spun down by centrifugation at 3000 rpm for 5 minutes at 4° C. and pellets were resuspended in hypotonic buffer (10 mM Tris HCl pH 7.5, 10 mM KCl, 1.5 mM MgCL2, 1 mM DTT, 1 mM PMSF) and incubated on ice for 5 minutes. Following incubation, cell suspension was spun down by centrifugation at 5000 rpm for 5 minutes at 4° C., and pellets were resuspended in 5× volume of fresh hypotonic buffer (with protease inhibitor cocktail, Roche C756U27) and then cells were homogenized using a Dounce homogenizer (glass). Cell suspension was layered onto hypotonic buffer sucrose cushion made with 30% sucrose w/v, spun down by centrifugation at 5000 rpm for 1 hour at 4° C. followed by removal of the cytosol-containing layer. The nuclei containing pellets were resuspended in high salt buffer (50 mM Tris HCl pH 7.5, 300 mM KCl, 1 mM MgCL2, 1 mM EDTA, 1 mM, 1% NP40, 1 mM DTT, 1 mM PMSF and protease inhibitor cocktail) and then the homogenate rotated for 1 hour at 4° C. […]

mononucleosomes = mononucleosomes (Homo sapiens, UniProt O60814+P04908); test: Peptide competition experiments; assay type: binding; details: SSX 34aa versus SMARCB1 aa351-385
[4] = test system: unmodified or H2A K119Ub-modified nucleosomes; test: Fluorescence polarization assay; assay type: binding; details: H2A K119Ub versus unmodified nucleosomes
[5] = test system: WT, H2AUb or H2BUb nucleosomes; test: AlphaLisa binding assay with biotinylated nucleosomes; details: 10 nM biotinylated nucleosomes
[6] = test system: mammalian mononucleosomes from HEK293T cells; test: Protein and peptide pull downs with mammalian mononucleosomes; assay type: binding, human
Procedure: (§1) The flow through was removed, the immobilized bait was incubated with 1-2 μg of purified mammalian mono-nucleosomes from HEK293T cells, recombinant mono-nucleosomes (EpiCypher, 16-0006), recombinant H2AK119Ub mono-nucleosomes (EpiCypher, 16-0020) or recombinant protein for 3 hours at 4° C., and the beads were washed 3× with EB150 buffer and then eluted in 2×LDS with 200 mM DTT with heating at 95° C. for 5 minutes. The pull downs were then visualized by immunoblot analysis or colloidal blue staining.
Mammalian mononucleosomes were purified from HEK293T cells similar to as previously described (Mashtalir et al. (2014) Mol. Cell 54:392-406). Cells were scraped from plates, washed with cold PBS, and centrifuged at 5,000 rpm for 5 min at 4° C. Pellets were resuspended in hypotonic buffer (EBO: 50 mM Tris HCl, pH 7.5, 1 mM EDTA, 1 mM MgCl2, 0.1% NP40 supplemented with 1 mM DTT, 1 mM PMSF, and protease inhibitor cocktail (Roche, C756U27) and incubated for 5 min on ice. The suspension was centrifuged at 5,000 rpm for 5 min at 4° C., and pellets were resuspended in 5 volumes of EB420 (EBO: 50 mM Tris HCl, pH 7.5, 420 mM NaCl, 1 mM MgCl2, 0.1% NP40 with supplemented with 1 mM DTT and 1 mM PMSF containing protease inhibitor cocktail (Roche, C756U27). Homogenate incubated on rotator for 1 hour at 4° C. The supernatant was then centrifuged at 20,000 rpm (30,000×g) for 1 hour at 4° C. using a SW32Ti rotor. Supernatant was then discarded and chromatin pellet was washed in MNAse buffer (20 mM Tris-HCl pH 7.5, 100 mM KCl, 2 mM MgCl2, 1 mM CaCl2, […] sucrose, 0.1% NP-40, and protease inhibitor cocktail) three times. Following MNase treatment (3 U/mL for 30 min at room temperature, Sigma-Aldrich), the reaction was quenched with 5 mM of EGTA and 5 mM of EDTA. The samples were then centrifuged at 20,000×g for 1 hour at 4° C. to obtain the soluble chromatin fraction. Soluble chromatin fraction was loaded onto 10-30% glycerol gradient (Mashtalir et al. (2014) Mol. Cell 54:392-406) and fractions containing mononucleosomes were isolated and concentrated using centrifugal filter (Amicon, EMD Millipore).

[7] = test system: acidic patch mutant nucleosomes (D90N, E92K, and E113K); test: GST-SSX pull down with acidic patch mutant nucleosomes; assay type: binding; details: H2A D90N, H3 immunoblot
Procedure: as §1

[8] = test system: recombinant H2AK119Ub mono-nucleosomes; test: Pull downs with WT or H2A K119Ub nucleosomes; assay type: binding
Procedure: as §1

Substance: SS18-SSX-bound BAF complexes: BAF complexes purified via HA-tagged SS18-SSX expressed in HEK-293T cells
- remodeling efficiency (nucleosomes): slightly lower than that of WT SS18-bound complexes
- peptides corresponding to the H2A K119Ub mark captured [1]: captured only in the purifications of SS18-SSX-bound complexes
- binding of H2A K119Ub-modified versus unmodified nucleosomes by BAF complexes [2]: enriched for binding of recombinant H2A K119Ub-modified nucleosomes over unmodified nucleosomes
- ATPase activity [3]: slightly lower than that of WT SS18-bound complexes
- core histone proteins captured (histone proteins): captured near-stoichiometric amounts of core histone proteins H2A, H2B, H3, and H4

Substance: SMARCB1 C-term alpha helix: peptide of the SMARCB1 C-terminal alpha helical domain, aa 351-385
- reciprocal competition for nucleosome acidic patch binding (mononucleosomes): unable to outcompete SSX from binding the nucleosomes

Substance: fluoro-labeled SSX: fluorescently-labeled SSX1 (78aa), in place of GST tag
- binding affinity by fluorescence polarization [4]: higher binding affinity to H2A K119Ub-decorated nucleosomes compared to unmodified nucleosomes

Substance: GST-SSX 78aa: GST-tagged recombinant C-terminal 78 residues of SSX1 (aa 111-188)
- affinity to H2A K119Ub-decorated nucleosomes, AlphaLisa [5]: significantly higher affinity to H2A K119Ub-decorated nucleosomes relative to unmodified nucleosomes or H2B K120Ub nucleosomes
- nucleosome binding in pull-down ([6]; mammalian mononucleosomes): sufficient for its nucleosomal interactions
- binding to mammalian versus recombinant, unmodified nucleosomes ([6]; pull-down): stronger than binding to recombinant, unmodified nucleosomes
- binding to acidic patch-mutant nucleosomes [7]: near complete loss of SSX binding
- affinity to H2A K119Ub-decorated nucleosomes, pulldown ([8]; H3 immunoblot): significantly higher affinity to H2A K119Ub-decorated nucleosomes relative to unmodified nucleosomes or H2B K120Ub nucleosomes
- binding across differentially-marked recombinant and mammalian nucleosomes ([8]; screen of modified mononucleosomes): preferentially bound to H2A K119Ub and mammalian nucleosomes over unmodified nucleosomes or nucleosomes with other histone marks
